Here are results for eight molecules from ChEMBL document CHEMBL3132769, “Fragment growing to retain or alter the selectivity of anchored kinase hinge-binding fragments” (Medchemcomm, 2014).

The inhibition is the drop in the measured response relative to a control, in per cent.

In assay [1] the target is Mitogen-activated protein kinase 14 (Homo sapiens) (UniProt Q16539). The assay can be described thus: Inhibition of human truncated p38 alpha expressed in Escherichia coli cell assessed as substrate phosphorylation using fluorescence-labelled peptides as substrate at 0.1 uM after 90 mins by microfluidic peptide phosphorylation assay.
Mitogen-activated protein kinase 14 (Homo sapiens), sequence (Q16539 whole entry, the tested form may be a part): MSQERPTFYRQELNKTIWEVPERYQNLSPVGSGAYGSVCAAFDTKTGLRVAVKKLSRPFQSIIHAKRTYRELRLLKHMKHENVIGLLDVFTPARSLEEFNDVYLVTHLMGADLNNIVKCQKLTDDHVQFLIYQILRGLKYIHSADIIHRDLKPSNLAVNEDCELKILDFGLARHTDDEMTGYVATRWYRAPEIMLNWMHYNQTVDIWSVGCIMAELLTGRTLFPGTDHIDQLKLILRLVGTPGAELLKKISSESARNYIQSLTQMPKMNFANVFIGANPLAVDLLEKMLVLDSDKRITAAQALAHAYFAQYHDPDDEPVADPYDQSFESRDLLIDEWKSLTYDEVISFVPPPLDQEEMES
For assay [2], the species on record is Homo sapiens. The conditions noted are these: 0.1 uM.
Description: Inhibition of human P70S6K catalytic domain expressed in baculovirus assessed as substrate phosphorylation using fluorescence-labelled peptides as substrate at 0.1 uM after 90 mins by microfluidic peptide phosphorylation assay
Assay [3] concerns the target Casein kinase I isoform delta (Homo sapiens) (UniProt P48730). The assay can be described thus: Inhibition of human CK1D catalytic domain expressed in Escherichia coli cell assessed as substrate phosphorylation using fluorescence-labelled peptides as substrate at 420 uM after 90 mins by microfluidic peptide phosphorylation assay.
In assay [4] the target is T1, Serine/threonine-protein kinase 3 (Homo sapiens) (UniProt Q13188).
T1 sequence (whole entry): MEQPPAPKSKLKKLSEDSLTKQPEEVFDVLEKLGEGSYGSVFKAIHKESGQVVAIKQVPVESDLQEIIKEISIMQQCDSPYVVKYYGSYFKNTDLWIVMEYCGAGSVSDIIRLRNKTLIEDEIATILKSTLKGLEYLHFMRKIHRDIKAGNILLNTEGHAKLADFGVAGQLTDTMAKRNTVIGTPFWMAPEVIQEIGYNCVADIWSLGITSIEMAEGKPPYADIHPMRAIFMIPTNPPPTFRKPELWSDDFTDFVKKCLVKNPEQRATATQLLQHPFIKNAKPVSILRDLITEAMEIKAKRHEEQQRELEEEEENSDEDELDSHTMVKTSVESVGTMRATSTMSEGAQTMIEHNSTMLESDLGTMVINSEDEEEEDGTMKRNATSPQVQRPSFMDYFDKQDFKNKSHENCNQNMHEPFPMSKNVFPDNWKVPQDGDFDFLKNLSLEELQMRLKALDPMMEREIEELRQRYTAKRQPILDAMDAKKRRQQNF
The assay can be described thus: Inhibition of human full length MST2 expressed in baculovirus assessed as substrate phosphorylation using fluorescence-labelled peptides as substrate at 420 uM after 90 mins by microfluidic peptide phosphorylation assay.

The target of assay [5] is Serine/threonine-protein kinase pim-1 (Homo sapiens) (UniProt P11309). The assay can be described thus: Inhibition of human full length PIM1 expressed in baculovirus assessed as substrate phosphorylation using fluorescence-labelled peptides as substrate at 420 uM after 90 mins by microfluidic peptide phosphorylation assay.
Serine/threonine-protein kinase pim-1 (Homo sapiens), sequence (P11309 whole entry, looked up): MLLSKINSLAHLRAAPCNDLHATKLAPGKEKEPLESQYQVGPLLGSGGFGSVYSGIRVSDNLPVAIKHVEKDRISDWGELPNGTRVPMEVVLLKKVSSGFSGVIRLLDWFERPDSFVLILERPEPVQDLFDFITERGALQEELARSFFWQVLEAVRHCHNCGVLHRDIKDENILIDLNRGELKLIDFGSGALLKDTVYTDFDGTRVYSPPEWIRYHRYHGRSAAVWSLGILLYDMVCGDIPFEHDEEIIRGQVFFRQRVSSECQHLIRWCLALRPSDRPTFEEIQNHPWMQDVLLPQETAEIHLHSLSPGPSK
Assay [6] deals with T2, Serine/threonine-protein kinase Chk1 (Homo sapiens) (UniProt O14757).
T2 sequence (whole entry): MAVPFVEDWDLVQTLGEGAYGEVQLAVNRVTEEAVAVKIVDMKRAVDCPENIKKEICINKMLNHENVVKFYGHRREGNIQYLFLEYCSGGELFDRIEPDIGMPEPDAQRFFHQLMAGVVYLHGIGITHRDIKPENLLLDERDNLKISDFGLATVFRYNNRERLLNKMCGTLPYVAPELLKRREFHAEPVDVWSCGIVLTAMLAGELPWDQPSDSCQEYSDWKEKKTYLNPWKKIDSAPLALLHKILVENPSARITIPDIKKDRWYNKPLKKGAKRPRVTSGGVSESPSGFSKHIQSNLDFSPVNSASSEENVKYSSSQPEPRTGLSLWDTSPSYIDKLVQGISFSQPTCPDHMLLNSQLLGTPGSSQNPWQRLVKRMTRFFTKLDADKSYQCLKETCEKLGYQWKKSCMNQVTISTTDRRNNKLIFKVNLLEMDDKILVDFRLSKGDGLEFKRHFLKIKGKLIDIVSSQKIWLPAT
The assay can be described thus: Inhibition of human full length CHK1 expressed in baculovirus assessed as substrate phosphorylation using fluorescence-labelled peptides as substrate at 95 uM after 90 mins by microfluidic peptide phosphorylation assay.

Assay [7] concerns Tyrosine-protein kinase ABL1 (Homo sapiens), P00519 [Q252H]. The assay can be described thus: Inhibition of human truncated ABL Q252H mutant expressed in baculovirus assessed as substrate phosphorylation using fluorescence-labelled peptides as substrate at 95 uM after 90 mins by microfluidic peptide phosphorylation assay.
Assay [8] concerns the target Tyrosine-protein kinase ABL1 (Homo sapiens) (UniProt P00519). The assay can be described thus: Inhibition of human full-length ABL expressed in baculovirus assessed as substrate phosphorylation using fluorescence-labelled peptides as substrate at 95 uM after 90 mins by microfluidic peptide phosphorylation assay.
Assay [9] has as its target Ribosomal protein S6 kinase alpha-2 (Homo sapiens) (UniProt Q15349). The assay can be described thus: Inhibition of human full length RSK3 expressed in baculovirus assessed as substrate phosphorylation using fluorescence-labelled peptides as substrate at 9 uM after 90 mins by microfluidic peptide phosphorylation assay.
Assay [10] deals with Tyrosine-protein kinase ABL1 (Homo sapiens), P00519 [H396P]. The assay can be described thus: Inhibition of human truncated ABL H396P mutant expressed in baculovirus assessed as substrate phosphorylation using fluorescence-labelled peptides as substrate at 1000 uM after 90 mins by microfluidic peptide phosphorylation assay.
Assay [11] concerns the target T3, Interleukin-1 receptor-associated kinase 4 (Homo sapiens) (UniProt Q9NWZ3).
T3 sequence (whole entry): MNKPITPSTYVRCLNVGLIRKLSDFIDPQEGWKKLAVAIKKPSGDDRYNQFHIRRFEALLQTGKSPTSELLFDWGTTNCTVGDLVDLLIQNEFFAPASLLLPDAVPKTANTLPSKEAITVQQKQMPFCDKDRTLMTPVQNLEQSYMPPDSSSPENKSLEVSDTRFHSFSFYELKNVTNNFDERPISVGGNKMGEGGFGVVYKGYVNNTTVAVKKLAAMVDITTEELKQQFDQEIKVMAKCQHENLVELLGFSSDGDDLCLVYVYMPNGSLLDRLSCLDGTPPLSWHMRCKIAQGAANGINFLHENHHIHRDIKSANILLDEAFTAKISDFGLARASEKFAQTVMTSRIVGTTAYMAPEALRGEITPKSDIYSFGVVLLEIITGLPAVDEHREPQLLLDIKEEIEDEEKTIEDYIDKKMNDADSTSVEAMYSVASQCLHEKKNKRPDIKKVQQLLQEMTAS
The assay can be described thus: Inhibition of human IRAK4 catalytic domain expressed in baculovirus assessed as substrate phosphorylation using fluorescence-labelled peptides as substrate at 0.06 uM after 90 mins by microfluidic peptide phosphorylation assay.

In assay [12] the target is T2, Serine/threonine-protein kinase Chk1 (Homo sapiens). The assay can be described thus: Inhibition of human full length CHK1 expressed in baculovirus assessed as substrate phosphorylation using fluorescence-labelled peptides as substrate at 0.06 uM after 90 mins by microfluidic peptide phosphorylation assay.
In assay [13] the target is Tyrosine-protein kinase ABL2 (Homo sapiens) (UniProt P42684). The assay can be described thus: Inhibition of human truncated Arg expressed in baculovirus assessed as substrate phosphorylation using fluorescence-labelled peptides as substrate at 0.06 uM after 90 mins by microfluidic peptide phosphorylation assay.
Tyrosine-protein kinase ABL2 (Homo sapiens), sequence (P42684 whole entry, the tested form may be a part): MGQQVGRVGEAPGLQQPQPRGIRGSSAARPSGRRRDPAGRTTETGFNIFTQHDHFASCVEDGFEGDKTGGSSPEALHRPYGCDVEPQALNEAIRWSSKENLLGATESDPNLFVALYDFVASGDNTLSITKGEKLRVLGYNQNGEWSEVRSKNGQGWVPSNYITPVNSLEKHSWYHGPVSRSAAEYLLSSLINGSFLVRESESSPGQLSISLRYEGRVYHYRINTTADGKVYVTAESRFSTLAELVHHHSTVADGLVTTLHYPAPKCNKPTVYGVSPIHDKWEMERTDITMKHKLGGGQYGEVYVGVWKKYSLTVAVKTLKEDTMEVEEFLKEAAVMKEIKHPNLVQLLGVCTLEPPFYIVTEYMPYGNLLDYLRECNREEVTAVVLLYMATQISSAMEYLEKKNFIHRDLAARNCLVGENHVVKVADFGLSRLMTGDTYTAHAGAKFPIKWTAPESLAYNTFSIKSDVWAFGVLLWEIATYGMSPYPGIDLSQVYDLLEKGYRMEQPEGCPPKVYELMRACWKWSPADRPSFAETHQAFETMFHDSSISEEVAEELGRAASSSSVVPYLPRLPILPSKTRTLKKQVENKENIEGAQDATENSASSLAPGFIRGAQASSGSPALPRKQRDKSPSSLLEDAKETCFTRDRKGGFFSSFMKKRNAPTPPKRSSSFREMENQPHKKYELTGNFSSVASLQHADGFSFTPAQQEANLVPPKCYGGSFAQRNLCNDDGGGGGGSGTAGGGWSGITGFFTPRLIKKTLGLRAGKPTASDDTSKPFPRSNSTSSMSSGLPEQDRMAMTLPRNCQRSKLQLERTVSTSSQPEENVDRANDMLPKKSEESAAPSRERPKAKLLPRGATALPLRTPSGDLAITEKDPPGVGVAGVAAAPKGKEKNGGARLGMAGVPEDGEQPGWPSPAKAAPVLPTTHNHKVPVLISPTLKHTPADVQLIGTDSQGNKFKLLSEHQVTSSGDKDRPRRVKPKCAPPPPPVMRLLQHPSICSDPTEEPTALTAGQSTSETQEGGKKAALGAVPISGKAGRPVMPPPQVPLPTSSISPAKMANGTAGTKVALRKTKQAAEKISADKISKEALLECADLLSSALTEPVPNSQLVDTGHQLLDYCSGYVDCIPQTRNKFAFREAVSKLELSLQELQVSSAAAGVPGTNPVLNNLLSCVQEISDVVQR
Assay [14] deals with Calcium/calmodulin-dependent protein kinase type II subunit delta (Homo sapiens) (UniProt Q13557). The assay can be described thus: Inhibition of human full length CAMK2D expressed in baculovirus assessed as substrate phosphorylation using fluorescence-labelled peptides as substrate at 2 uM after 90 mins by microfluidic peptide phosphorylation assay.
Calcium/calmodulin-dependent protein kinase type II subunit delta (Homo sapiens), sequence (Q13557 whole entry): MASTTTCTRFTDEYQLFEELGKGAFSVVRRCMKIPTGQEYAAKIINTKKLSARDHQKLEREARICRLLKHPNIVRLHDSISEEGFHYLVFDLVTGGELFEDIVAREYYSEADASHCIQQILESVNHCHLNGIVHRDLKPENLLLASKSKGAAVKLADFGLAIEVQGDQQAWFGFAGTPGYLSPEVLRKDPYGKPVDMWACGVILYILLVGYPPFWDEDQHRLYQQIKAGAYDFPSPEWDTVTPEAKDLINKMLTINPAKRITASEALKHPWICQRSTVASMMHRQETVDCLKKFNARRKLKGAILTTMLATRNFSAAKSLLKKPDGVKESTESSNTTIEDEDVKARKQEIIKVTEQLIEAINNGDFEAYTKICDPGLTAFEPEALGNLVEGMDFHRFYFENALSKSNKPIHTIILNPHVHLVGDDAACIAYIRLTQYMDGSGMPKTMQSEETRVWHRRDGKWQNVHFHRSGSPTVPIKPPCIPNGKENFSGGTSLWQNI
Assay [15] has as its target Glycogen synthase kinase-3 beta (Homo sapiens) (UniProt P49841). The assay can be described thus: Inhibition of human full length GSK-3 beta expressed in baculovirus assessed as substrate phosphorylation using fluorescence-labelled peptides as substrate at 70 uM after 90 mins by microfluidic peptide phosphorylation assay.

Ribosomal protein S6 kinase alpha-2 (Homo sapiens), sequence (Q15349 whole entry, the tested form may be a part): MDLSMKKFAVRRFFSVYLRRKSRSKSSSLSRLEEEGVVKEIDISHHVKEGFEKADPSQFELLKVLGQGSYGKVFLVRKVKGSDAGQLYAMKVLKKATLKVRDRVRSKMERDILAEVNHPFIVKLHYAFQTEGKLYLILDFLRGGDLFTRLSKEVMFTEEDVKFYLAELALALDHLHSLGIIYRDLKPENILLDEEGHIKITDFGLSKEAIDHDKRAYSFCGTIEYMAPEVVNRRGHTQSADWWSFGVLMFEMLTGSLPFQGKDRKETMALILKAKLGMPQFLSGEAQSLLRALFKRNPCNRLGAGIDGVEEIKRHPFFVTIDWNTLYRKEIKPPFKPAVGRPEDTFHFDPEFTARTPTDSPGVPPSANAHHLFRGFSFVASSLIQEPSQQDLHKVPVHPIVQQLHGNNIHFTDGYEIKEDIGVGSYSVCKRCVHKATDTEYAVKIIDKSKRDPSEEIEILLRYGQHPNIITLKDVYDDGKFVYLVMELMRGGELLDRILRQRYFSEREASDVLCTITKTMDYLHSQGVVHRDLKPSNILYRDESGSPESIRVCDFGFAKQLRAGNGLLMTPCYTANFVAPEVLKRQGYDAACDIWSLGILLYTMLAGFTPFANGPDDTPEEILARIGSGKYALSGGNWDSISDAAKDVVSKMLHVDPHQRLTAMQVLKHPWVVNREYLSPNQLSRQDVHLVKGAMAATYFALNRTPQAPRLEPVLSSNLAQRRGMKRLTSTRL
Glycogen synthase kinase-3 beta (Homo sapiens), sequence (P49841 whole entry, looked up): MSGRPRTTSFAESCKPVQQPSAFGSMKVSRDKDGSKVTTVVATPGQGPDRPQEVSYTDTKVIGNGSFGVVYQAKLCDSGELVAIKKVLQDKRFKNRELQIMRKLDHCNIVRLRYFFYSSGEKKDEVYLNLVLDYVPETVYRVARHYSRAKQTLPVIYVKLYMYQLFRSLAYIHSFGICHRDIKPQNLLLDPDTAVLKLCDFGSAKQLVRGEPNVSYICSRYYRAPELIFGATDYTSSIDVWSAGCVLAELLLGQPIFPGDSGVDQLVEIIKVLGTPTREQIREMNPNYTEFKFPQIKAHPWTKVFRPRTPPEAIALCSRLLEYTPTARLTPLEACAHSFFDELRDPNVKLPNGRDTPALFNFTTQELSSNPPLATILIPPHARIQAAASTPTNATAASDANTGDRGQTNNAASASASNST
Casein kinase I isoform delta (Homo sapiens), sequence (P48730 whole entry, looked up, the tested form may be a part, canonical isoform): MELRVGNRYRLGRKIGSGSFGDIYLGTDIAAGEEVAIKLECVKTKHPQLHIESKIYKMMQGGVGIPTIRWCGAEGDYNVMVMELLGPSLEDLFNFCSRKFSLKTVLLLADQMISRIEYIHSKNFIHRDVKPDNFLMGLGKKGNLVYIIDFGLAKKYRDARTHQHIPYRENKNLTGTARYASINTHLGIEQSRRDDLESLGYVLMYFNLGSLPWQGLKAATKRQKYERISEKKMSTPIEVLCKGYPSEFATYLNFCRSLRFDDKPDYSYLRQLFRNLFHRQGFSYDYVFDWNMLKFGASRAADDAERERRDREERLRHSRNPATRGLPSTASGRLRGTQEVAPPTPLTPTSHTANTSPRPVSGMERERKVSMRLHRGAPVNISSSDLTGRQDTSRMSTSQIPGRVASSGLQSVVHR

For `C[C@H](CN(C)C)Oc1nc(Nc2cc3cccc(Cl)c3cn2)cnc1C#N`, the inhibition in [1] stood at 1%; in assay [2], 0%.

In the case of `c1nc(N2CCOCC2)c2nc[nH]c2n1`, the results for the inhibition in [3], in [4] and in assay [5] were 81.5%, 99% and 31.5%, respectively.

As for `NCCc1ccc(-c2ncnc3[nH]cnc23)cc1`, the values for the inhibition in assay [6], in assay [7] and in assay [8] were 75.5%, 67.5% and 78%, respectively.

In the case of `NCC1CN(c2ncnc3[nH]c4cnccc4c23)CCO1` (stereo not given), the inhibition in assay [9] was 95.5%.

As for `c1cnc2[nH]ccc2c1`, the inhibition in assay [10] was 44.5%.

With `NC1(Cc2ccc(Cl)cc2)CCN(c2ncnc3[nH]ccc23)CC1`, the inhibition in assay [11] was 0%; in assay [12], 0%; in assay [13], 5%.

Regarding `NC1CCN(c2ncnc3[nH]ccc23)CC1`, the inhibition in assay [14] turned out to be 8%.

For `CNCc1ccc(-c2ncnc3[nH]cnc23)cc1`, the inhibition in assay [15] came out at 37.5%.
